This test concerns 926638-142-R-J1-PDC complex spheroid viability. The experiment in a line: Anticancer human tumor 926638-142-R-J1-PDC patient-derived endometrial carcinoma cell line growth inhibition [POLQ]. As to conditions: for viability, T/C: stronger effect = lower value. The method, then: Multicellular complex tumor spheroid response to Polymerase (POL) inhibitors (novobiocin, ART-558, RP6685) in combination with a variety of drugs and investigational agents in selected tumor cell lines
The POL inhibitors (novobiocin, ART-558, and RP6685) were evaluated both individually and in combination with standard of care and investigational anticancer small molecules within a complex spheroid model of solid tumors. . Complex spheroids include a stromal component modeled by human endothelial cells (HUVEC) and fibroblasts modeled by human mesenchymal stem cells (MSCs). The concentration ranges selected for each drug and investigational agent were based upon clinically achievable concentrations if the clinical Cmax of the agent was known.
Compounds. The drugs and investigational agents: novobiocin (NSC847541), ART-558 (NSC835418), RP-6685 (NSC848927), peposertib (NSC802822), ceralasertib (NSC780249), elimusertib (NSC800525), camonsertib (NSC841442), AZD-1390 (NSC803789), olaparib (NSC753686), talazoparib (NSC767125), rucaparib (NSC756644), sotorasib (NSC818433), MRTX-1133 (NSC836407), SN-38 (NSC673596), topotecan (NSC609699), epotoside (NSC141540), doxorubicin (NSC123127), gemcitabine (NSC613327), 5-fluorouracil (NSC19893), paclitaxel (NSC125973), vemurafenib (NSC761431), MSA-2 (NSC828583), SN-011 (NSC837082), adavosertib (NSC754352), prexasertib (NSC758257), carboplatin (NSC241240) and oxaliplatin (NSC266046), were obtained from the National Cancer Institute (NCI) Developmental Therapeutics Program Chemical Repository (21). The FDA-approved anticancer drug set is available from the Developmental Therapeutics Program at https://dtp.cancer.gov/organization/dscb/obtaining/. […] The stock solutions were prepared in dimethyl sulfoxide (DMSO, Sigma-Aldrich, St. Louis, MO, cat. D2650), except for the platinum compounds which were prepared in saline (Quality Biological, Gaithersburg, MD, cat. 114-055-101), at 800-fold the tested concentration and stored at -70 degrees C prior to their use. All drugs and investigational agents were tested over a range starting from a high concentration at or near the clinical Cmax and decreasing in half-log increments. If the clinical Cmax for an agent had not been determined, the highest concentration tested was 10 microM, except for SN-38, which was tested at a high concentration of 1 microM.
Cell Culture. All cells were maintained in an incubator at 37 degrees C and 5% CO2 with 95% humidity. The PDC lines were cultured according to standard operating procedures established by the NCI PDMR (https://pdmr.cancer.gov). Table 3 of the manuscript, lists the cell lines along with the number of the three cell types plated to form the mct-spheroids and media for tumor cell growth. After thawing, all PDC lines, except 997537-175-T-J1-PDC and 415267-285-R-J2-PDC, were cultured in Matrigel-coated flasks prepared with a working solution of 1X Ham's F-12 nutrient mix, without supplementation (Thermo Fisher Scientific, cat. 11765054), 100 U/mL penicillin-streptomycin (Thermo Fisher Scientific, cat. 15140122), and 2.5% Matrigel (Corning Inc., Corning, NY, cat. 354248) for the first three passages. The two PDC lines 997537-175-T-J1-PDC and 415267-285-R-J2-PDC were cultured on uncoated flasks. The 857933-349-R-J2-PDC line was cultured in 6C/Colon 1B media containing advanced DMEM/F-12 (Thermo Fisher Scientific, cat. 12634028), 10 mM HEPES (Thermo Fisher Scientific, cat. 15630080), 1X GlutaMAX supplement (Thermo Fisher Scientific, cat. 35050061), 0.1 mg/mL primocin (InvivoGen, San Diego, CA, cat. ant-pm-2), 10% defined fetal bovine serum, heat inactivated (HyClone Laboratories Inc., Logan, UT, cat. SH30070.03HI), 50% L-WRN conditioned media (ATCC, cat. CRL-3276), 1.25 mM N-Acetyl-L-cysteine (Sigma-Aldrich, cat. A9165), 10 mM nicotinamide (Sigma-Aldrich, cat. N0636), 1X B-27 supplement (Thermo Fisher Scientific, cat. 17504044), 1X N-2 supplement (Thermo Fisher Scientific, cat. […]

Values joined by “and” are separate entries in the source; they are usually repeats but may differ in a detail not shown here. Identical values can stand only once.
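Further: spheroids exposed to drugs for one week before readout.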
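Wherever viability, T/C is given: percent viability relative to DMSO vehicle control wells set as 100%.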

`CC1COCCN1c1cc(C2(S(C)(=N)=O)CC2)nc(-c2ccnc3[nH]ccc23)n1` (stereo not drawn) + Cc1cccc(N(C)C(=O)C2C(O)CCN2c2nc(C)cc(C(F)(F)F)c2C#N)c1: the IC50 is, setting by setting: (curve of first compound, second compound 0.0316 µM) 4550 nM; (curve of first compound, second compound 0.1 µM) 5510 nM; (curve of first compound, second compound 0.316 µM) 4700 nM; (curve of first compound, second compound 1 µM) 4960 nM; (curve of first compound, second compound 3.16 µM) 4390 nM; (curve of first compound, second compound 10 µM) 4050 nM. The viability, T/C reads like this: (second compound 0.0316 µM, first compound 0.0316 µM) 117%; (second compound 0.0316 µM, first compound 0.1 µM) 93.9%; (second compound 0.0316 µM, first compound 0.316 µM) 93.8%; (second compound 0.0316 µM, first compound 1 µM) 101%; (second compound 0.0316 µM, first compound 3.16 µM) 59.2%; (second compound 0.0316 µM, first compound 10 µM) 30.1%. Further, the viability, T/C reads like this: (second compound 0.1 µM, first compound 0.0316 µM) 104%; (second compound 0.1 µM, first compound 0.1 µM) 91.2%; (second compound 0.1 µM, first compound 0.316 µM) 100%; (second compound 0.1 µM, first compound 1 µM) 81.2%; (second compound 0.1 µM, first compound 3.16 µM) 76.2%; (second compound 0.1 µM, first compound 10 µM) 25.8%. Besides, the viability, T/C was 107% (second compound 0.316 µM, first compound 0.0316 µM); 90.9% (second compound 0.316 µM, first compound 0.1 µM); 98.6% (second compound 0.316 µM, first compound 0.316 µM); 79.5% (second compound 0.316 µM, first compound 1 µM); 60.7% (second compound 0.316 µM, first compound 3.16 µM); 29.7% (second compound 0.316 µM, first compound 10 µM). Moreover, the viability, T/C (second compound 1 µM, first compound 0.0316 µM) is 117%; the viability, T/C (second compound 1 µM, first compound 0.1 µM) was 101%; the viability, T/C (second compound 1 µM, first compound 0.316 µM) was 96.4%; the viability, T/C (second compound 1 µM, first compound 1 µM) is 110%; the viability, T/C (second compound 1 µM, first compound 3.16 µM) is 60.5%; the viability, T/C (second compound 1 µM, first compound 10 µM) was 33.6%. The viability, T/C is, setting by setting: (second compound 3.16 µM, first compound 0.0316 µM) 91.6%; (second compound 3.16 µM, first compound 0.1 µM) 117%; (second compound 3.16 µM, first compound 0.316 µM) 95.2%; (second compound 3.16 µM, first compound 1 µM) 103%; (second compound 3.16 µM, first compound 3.16 µM) 59%; (second compound 3.16 µM, first compound 10 µM) 27.4%. Moreover, the viability, T/C was 80.4% (second compound 10 µM, first compound 0.0316 µM); 112% (second compound 10 µM, first compound 0.1 µM); 87.8% (second compound 10 µM, first compound 0.316 µM); 89% (second compound 10 µM, first compound 1 µM); 56.7% (second compound 10 µM, first compound 3.16 µM); 25.5% (second compound 10 µM, first compound 10 µM).
With `CC1COCCN1c1cc(C2(O)CC3CCC(C2)O3)c2cnn(-c3ccn[nH]3)c2n1` (stereo not drawn), the viability, T/C runs as follows: (compound 0.0316 µM) 91.2% and 96.2% and 105%; (compound 0.1 µM) 64.1% and 73.2% and 58.2%; (compound 0.316 µM) 37% and 33.6% and 36.9%; (compound 1 µM) 12.2% and 13.1% and 15.8%; (compound 3.16 µM) 6.85% and 6.69% and 9.86%; (compound 10 µM) 2.36% and 3.68% and 4.18%. For the same molecule, for the setting “curve of compound”, the IC50 is 178 nM and 198 nM and 156 nM.
In the case of `Nc1ccn(C2OC(CO)C(O)C2(F)F)c(=O)n1` (stereo not drawn), the viability, T/C is, setting by setting: (compound 0.0316 µM) 69.5% and 96.5% and 88.2%; (compound 0.1 µM) 66% and 60.7% and 62%; (compound 0.316 µM) 54.2% and 57.4% and 60.7%; (compound 1 µM) 52.6% and 52.3% and 53.2%; (compound 3.16 µM) 43.8% and 41.2% and 44%; (compound 10 µM) 30.5% and 27.8% and 24.4%. The IC50 (curve of compound) is 1100 nM and 577 nM and 974 nM.
`CCc1cc2c(N3CCc4c(cc(Cn5ccnc5)cc4-c4cn(C)nc4C(F)(F)F)C3=O)ccnc2c(OC)n1`: the viability, T/C is, setting by setting: (compound 0.0316 µM) 60.9% and 84.9% and 79%; (compound 0.1 µM) 79.4% and 67.7% and 61%; (compound 0.316 µM) 48% and 59.9% and 64.8%; (compound 1 µM) 43.1% and 45% and 49.4%; (compound 3.16 µM) 25.4% and 39.3% and 37.3%; (compound 10 µM) 27.3% and 29.5% and 28.1%. In addition, the IC50 (curve of compound) was 456 nM and 714 nM and 921 nM.

The IC50 is the midpoint of a concentration-inhibition curve. Broadly, the viability, T/C is the result in the treated group divided by that in the control group, in per cent.

These data come from PubChem BioAssay AID1963826 (Molecular Pharmacology Branch, DTP, NCI, 2024).
